Laboratory results: patent US20140154180A1, “Pharmacophores for Amyloid Fibers Involved in Alzheimer's Disease” (The Regents of the University of California, priority 2011, published 2014)
“Also recorded” adds a separate entry of the source.

Experiments:
[1] = target: T1, VQIVYK (SEQ ID NO: 2) segment from the tau protein (Homo sapiens, UniProt P10636); assay: LC-MSMS analysis of co-crystals, molar ratio, VQIVYK
T1 construct: host or cells: chemically synthesized peptide
Description: Liquid chromatography tandem mass spectrometry (LC-MSMS) was used to measure the molar ratios of the peptide segments and the small molecules within the crystals. Authentic samples of the peptides and each of the small molecules were used to prepare standard response curves. Crystals from each of the four mixtures of peptides and small compounds were individually picked (using a sharpened glass capillary) and re-dissolved in 5%-10% acetonitrile. The samples were divided into two aliquots, one for the peptide analyses and the other for the small molecule analyses, and the amount of each component in the samples was interpolated using the standard curves.
Peptide standards (dry powder of VQIVYK (SEQ ID NO: 2) and KLVFFA (SEQ ID NO: 1)) were dissolved in water and prepared in concentrations ranging from 0.05 μM to 0.01 mM in 0.1% TFA. […] Data were collected in the positive ion multiple reaction monitoring (MRM) mode in which the intensity of specific parent→fragment ion transitions were recorded (VQIVYK (SEQ ID NO: 2), m/z 749.5→341.3, 749.5→409.4, 749.5→440.3, 749.5→522.5; KLVFFA (SEQ ID NO: 1), 724.4→84, 724.4→488.3, 362.7→84, 362.7→120.1). […]

[2] = tested on: Aβ toxicity to PC12 cells; assay: MTT cell viability assay, rescue from Abeta toxicity, PC12 cells; assay type: cell-based; settings: Table 7; scaled cell survival rate, buffer-treated cell 100%, Abeta-treated cell 0%; Abeta 0.5 μM; 12 h incubation
Description: (§1) We tested candidate compounds by the MTT-based cell proliferation/viability assay, as described on the ATCC web site. Briefly, the ATCC MTT Cell Proliferation Assay quantitates the reduction of the yellow tetrazolium salt (MTT) in response to an external factor, such as treatment with a compound of the present invention, as a measure of a cell population's response to the external factor. The assay measures the cell proliferation rate and conversely, when metabolic events lead to apoptosis or necrosis, the reduction in cell viability. In our tests, Hela and PC12 cell lines were used to assess the toxic effect of Abeta protein. Abeta at 0.5 μM was a positive control. The small molecule inhibitors were added to samples with different concentrations (such as 2.5 μM). After 12 h incubation at room temperature, the absorbance of reduced MIT was measured at 570 nm. Each of the experiments was repeated 3 times with 4 replicates per sample per concentration. Our MTT cell viability assay quantified the percentage of survival cells upon the treatment of the mixture of Abeta and compound inhibitors. The rescuing percentage of each compound was calculated by normalizing the survival percentage using the buffer-treated cell as 100% viability and Abeta-treated cell as 0% viability.

[3] = tested on: Aβ toxicity to Hela cells; assay: MTT cell viability assay, rescue from Abeta toxicity, Hela cells; assay type: cell-based; settings: Table 7; scaled cell survival rate, buffer-treated cell 100%, Abeta-treated cell 0%; Abeta 0.5 μM; 12 h incubation
Description: as §1

[4] = target: T2, KLVFFA (SEQ ID NO: 1) fibers (Homo sapiens, UniProt P05067); assay: 1H NMR titration with KLVFFA fibers; assay type: binding; settings: compound 100 μM, increasing KLVFFA fiber concentrations, 283 K; read-out: apparent dissociation constant (Kd)
T2 construct: host or cells: chemically synthesized peptide
Protocol: As a validation of our computational approach, we used nuclear magnetic resonance (NMR) to characterize the interactions between our BAF compounds and KLVFFA (SEQ ID NO: 1) and Aβ fibers.
NMR samples contained 550 μL of designed compounds were added from 1 mM stocks in H2O to a final concentration of 100 μM. Fibrillar KLVFFA (SEQ ID NO: 1) and Abeta were added at the indicated concentrations. 500 MHz ^1H NMR spectra were collected on a Bruker DRX500 at 283 K. H2O resonance was suppressed through presaturation. Spectra were processed with XWINNMR 3.6.

Aβ fibrillation = Aβ fibrillation (Homo sapiens, UniProt P05067); assay: Electron microscopy (EM) of Aβ with BAF compounds; settings: Aβ with compound right before adding to the cell medium
[5] = tested on: Aβ toxicity to Hela and PC12 cell lines; assay: MTT cell viability assay, Abeta toxicity, cell line not given; assay type: cell-based; settings: FIG. 17B
Description: as §1

Sequence of Aβ fibrillation (P05067 672-713): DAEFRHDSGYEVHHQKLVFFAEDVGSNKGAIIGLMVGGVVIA

VQIVYK segments for each small molecule [1] | Kd [4] | inhibition of Aβ fibrillation (EM) (Aβ fibrillation) | Compound | Rescuing Percentage PC12 [2] | Rescuing Percentage Hela [3] | dose dependence of reduction of Aβ cytotoxicity [5]
~400 | – | – | CC(=C(C#N)C#N)c1ccc2cc(N(C)C)ccc2c1 [DDNP, 1,1-Dicyano-2-[6-(dimethylamino)naphthalen-2-yl]propene] | – | – | –
– | – | – | O=c1c(O)c(-c2cc(O)c(O)c(O)c2)oc2cc(O)cc(O)c12 [BAF26] | 85.5% | 51.4% | –
~100 | – | – | COc1cc(/C=C/C(=O)CC(=O)/C=C/c2ccc(O)c(OC)c2)ccc1O [curcumin, Curcumin] | – | – | –
– | ~43 µM | – | O=S(=O)(O)c1cc(S(=O)(=O)O)c2c(/N=N/c3ccccc3)c(O)ccc2c1 [Orange-G, reference compound] | – | – | –
– | ~12 µM | do not inhibit Aβ fibrillation | O=C1OC2(c3ccccc31)c1cc(Br)c(O)c(Br)c1Oc1c2cc(Br)c(O)c1Br [BAF1] | 44.3% | 41.3% | –
– | ~24 µM | do not inhibit Aβ fibrillation | Cc1ccc(O)c(N=Nc2c(O)cc(S(=O)(=O)O)c3ccccc23)c1 [BAF8] | 25.1% | 27.1% | –

Compound | VQIVYK segments for each small molecule [1] | Kd [4] | inhibition of Aβ fibrillation (EM) (Aβ fibrillation) | Rescuing Percentage PC12 [2] | Rescuing Percentage Hela [3] | dose dependence of reduction of Aβ cytotoxicity [5]
CCCN1CCc2cc(O)cc3c2C1Cc1ccc(O)c(O)c1-3 (centres unmarked) [BAF31] | – | – | do not inhibit Aβ fibrillation | 92.6% | 83.0% | reduce Aβ cytotoxicity in a dose dependent manner; also recorded: reduce Aβ cyto-toxicity in a dose dependent manner
